Earlier results on 3 molecules are cited in patent US10500232B2, “Small molecule cellular reprogramming to generate neuronal cells” (The J. David Gladstone Institutes, a testamentary trust …, priority 2013, dated 2019).

Each structure is given as a SMILES string.

The term EC50 denotes the concentration at which the effect is half-maximal. Usually Ki stands for the dissociation constant of the complex between target and ligand, obtained from inhibition or displacement.

For one series, the target named is mGlu4 (Homo sapiens, UniProt Q14833). Particulars: read-out: EC50 against mGlu4; cited from earlier work.
mGlu4, sequence (Q14833 33-912): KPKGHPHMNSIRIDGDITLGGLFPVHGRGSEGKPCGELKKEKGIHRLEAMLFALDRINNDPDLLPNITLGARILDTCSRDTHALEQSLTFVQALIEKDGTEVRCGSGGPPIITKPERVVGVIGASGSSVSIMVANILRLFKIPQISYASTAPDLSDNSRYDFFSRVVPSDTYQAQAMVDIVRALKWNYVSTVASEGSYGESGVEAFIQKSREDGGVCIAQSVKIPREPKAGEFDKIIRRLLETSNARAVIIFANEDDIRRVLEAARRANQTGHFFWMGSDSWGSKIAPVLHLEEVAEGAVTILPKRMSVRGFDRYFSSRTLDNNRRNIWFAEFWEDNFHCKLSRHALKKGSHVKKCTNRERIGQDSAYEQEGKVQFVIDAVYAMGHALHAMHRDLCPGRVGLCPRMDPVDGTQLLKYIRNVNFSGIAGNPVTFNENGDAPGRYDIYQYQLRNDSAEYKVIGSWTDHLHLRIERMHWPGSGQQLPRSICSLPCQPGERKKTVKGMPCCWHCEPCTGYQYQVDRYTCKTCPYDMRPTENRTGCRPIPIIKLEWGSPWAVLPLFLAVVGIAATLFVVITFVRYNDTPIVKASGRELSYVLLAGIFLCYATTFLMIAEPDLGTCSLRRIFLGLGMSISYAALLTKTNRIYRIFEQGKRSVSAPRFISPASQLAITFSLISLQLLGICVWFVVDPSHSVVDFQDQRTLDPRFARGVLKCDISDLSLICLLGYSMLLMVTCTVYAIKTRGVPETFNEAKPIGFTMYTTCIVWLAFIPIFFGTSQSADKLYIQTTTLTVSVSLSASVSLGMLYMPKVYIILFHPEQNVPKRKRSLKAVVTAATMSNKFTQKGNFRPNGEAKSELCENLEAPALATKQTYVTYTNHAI
A further series has as its target various mGlu receptors. Particulars: Ki depends on which receptor is bound; cited from earlier work.
The next series has as its system mGlu(3) receptors. Particulars: rodent and human; cited from earlier work.
For another series, the system named is mGlu(2) receptors. Particulars: rodent and human; cited from earlier work.

For `COc1cc(NC(=O)c2ccccn2)ccc1Cl` [ML128, N-(4-chloro-3-methoxyphenyl)pyridine-2-carboxamide], on mGlu4, the EC50 is 0.2 to 2.3 µM. For the molecule `N[C@@]1(C(=O)O)COC2C1[C@H]2C(=O)O` (stereo partly drawn) [LY379268, (4R,6R)-4-amino-2-oxabicyclo[3.1.0]hexane-4,6-dicarboxylic acid], on various mGlu receptors, the Ki is 0.0027 to 100 µM. Take `NC1(C(=O)O)CC(F)C2C(C(=O)O)C21` (stereo not shown) [LY459477, 2-amino-4-fluorobicyclo[3.1.0]hexane-2,6-dicarboxylic acid]: the “potency for mGlu(3) receptors” value in the series with mGlu(3) receptors is 0.001 to 0.002 µM. Moreover, the “potency for mGlu(2) receptors” value with mGlu(2) receptors was 0.001 to 0.002 µM.
